The target in data set [1] is T1, human Kv7.2+3 (Homo sapiens, UniProt O43525+O43526).
T1 construct: expressed in transfected cells; host or cells: HEK293
Briefly: FLIPR-based characterization of Kv7.2+3 modulators (thallium (I) sensitive BTC fluorescence assay). In kind it is cell-based. Conditions: HEK293 cells over-expressing human Kv7.2+3, mean of at least two test runs; for EC50: Tl+ influx, FLIPR, 50% of channel activity compared to retigabine control responses; for Emax: maximal response relative to the reference (retigabine) response, read-out: Efficacy. As for the experimental part:
FLIPR-Based Characterization of Kv7.2+3 Modulators
This experiment determines the ability of a test compound to modulate the activity of Kv7.2+3 channels heterologously expressed in human HEK293 cells. The ability is determined relative to retigabine. The activity is determined using a standard thallium (I) sensitive assay, e.g. using a fluorometric method in a Fluorescent Image Plate Reader (FLIPR) as described below in more detail.
Full concentration/response curves are generated and EC50 values are calculated based on max values. EC50 values (Effective Concentration) represent the concentration of the test substance, at which 50% of the channel activity is obtained when compared to retigabine control responses. Maximal response determined relative to the reference (retigabine) response is calculated.
Human HEK293 cells over-expressing human Kv7.2+3 are grown in culture medium (DMEM supplemented with 10% foetal bovine serum), in polystyrene culture flasks ([…]) in a humidified atmosphere of 5% CO2 in air, at 37° C. Cell confluence should be 80-90% on day of plating. Cells are rinsed with 4 ml of PBS (phosphate buffered saline) and incubated 2 min with 1 ml of Trypsin-EDTA. After addition of 25 ml of culture medium cells are re-suspended by trituration with a 25 ml pipette.
The cells are seeded at a density of ˜3×10^6 cells/ml (25 μl/well) in blackwalled, clear bottom, 384-well plates pre-treated with 0.01 g/l poly-D-lysin (20 μl/well for ≧30 min). Plated cells were allowed to proliferate for 24 h before loading with dye.
BTC-AM (50 mg, Invitrogen) is added 25.5 μl DMSO. The BTC-AM stock solution (2 mM) is diluted to a final concentration of 2 μM in Cl^− free assay buffer (in mM: 140 Na^+-gluconate, 2.5 K^+-gluconate, 6 Ca2^+-gluconate, 1 Mg^2+gluconate, 5 glucose, 10 HEPES, pH 7.3) containing 2 μM ouabain, 2 mM amaranth and 1 mM tartrazine.
The culture medium is aspirated from the wells, the cells are washed thrice in Cl^− free assay buffer, and 25 μl of the BTC-AM loading solution is added to each well. The cells are incubated at 37° C. for 60 min.
After the loading period, the TI^+-sensitive BTC fluorescence signal is measured over time using a FLIPR.
• Temperature: Room temp. • First addition: 12 μl test or control compound after 15 sec at a rate of 30 μl/sec and starting height of 20 μl • Second addition: 12 μl stimulus buffer (Cl^− free assay buffer supplemented with 1 mM Tl2SO4, 5 mM K2SO4 as well as the quenchers amaranth (2 mM) and tartrazine (1 mM)) is added after an additional 3 minutes at a rate of 30 μl/sec and starting height of 30 μl • Reading intervals: First sequence—3 sec×5, 2 sec×24 and 5 sec×25 Second sequence—1 sec×5, 2 sec×24 and 5 sec×36 Addition plates (compound plate and stimulus plate) are placed in positions 2 and 3, respectively. Cell plates are placed in position 1 and run using the “KCNQ (two additions)” program. FLIPR will then take the appropriate measurements in accordance with the interval settings above. Fluorescence obtained after stimulation is corrected for the mean basal fluorescence (in Cl^− free assay buffer).
Full concentration/response curves are generated and EC50 values (“Effective Concentration”; the concentration at which 50% of the channel activity is obtained when compared to retigabine control responses) are calculated based on peak values. Maximal response determined relative to the reference (retigabine) response is calculated. Data are given as mean of at least two test runs

Each structure is given as a SMILES string.

Turning to `Cc1cc(N2CCc3ncccc3C2)nc(N2CCC(F)(F)CC2)c1NC(=O)c1scnc1C` [Compound 1.10, N-[2-(4,4-difluoro-1-piperidyl)-6-(7,8-dihydro-5H-1,6-naphthyridin-6-yl)-4-methyl-3-pyridyl]-4-methyl-thiazole-5-carboxamide], in data set [1], the response was half-maximal at 6900 nM (EC50) and the Emax is 115%.

With `Cc1cc(N2CCc3ncccc3C2)nc(N2CCC(F)(F)CC2)c1NC(=O)c1conc1C` [Compound 1.11, N-[2-(4,4-difluoro-1-piperidyl)-6-(7,8-dihydro-5H-1,6-naphthyridin-6-yl)-4-methyl-3-pyridyl]-3-methyl-isoxazole-4-carboxamide], in data set [1], the response was half-maximal at 1200 nM (EC50) and the Emax worked out at 115%.

As to `Cc1cc(N2CCc3ncccc3C2)nc(N2CC[C@@H](F)C2)c1NC(=O)Cc1cc(F)cc(F)c1` [Compound 1.5, 2-(3,5-difluorophenyl)-N-[6-(7,8-dihydro-5H-1,6-naphthyridin-6-yl)-2-[(3R)-3-fluoropyrrolidin-1-yl]-4-methyl-3-pyridyl]-acetamide], in data set [1], the EC50 amounted to 190 nM and the Emax was 101%.

For `Cc1cc(N2CCc3ncccc3C2)nc(N2CCC(F)(F)CC2)c1NC(=O)c1ncoc1C` [Compound 1.9, N-[2-(4,4-difluoro-1-piperidyl)-6-(7,8-dihydro-5H-1,6-naphthyridin-6-yl)-4-methyl-3-pyridyl]-5-methyl-oxazole-4-carboxamide], in data set [1], the EC50 was determined as 50 nM and the Emax was found to be 105%.

Take `CCOC(=O)Nc1c(C)cc(N2CCc3ncccc3C2)nc1N1CCC(F)(F)CC1` [Compound 1.20, ethyl N-[2-(4,4-difluoro-1-piperidyl)-6-(7,8-dihydro-5H-1,6-naphthyridin-6-yl)-4-methyl-3-pyridyl]-carbamate]: in data set [1], the EC50 turned out to be 280 nM and the Emax was 100%.

`CCc1ocnc1C(=O)Nc1c(C)cc(N2CCc3ncccc3C2)nc1N1CCC(F)(F)CC1` [Compound 1.14, N-[2-(4,4-difluoro-1-piperidyl)-6-(7,8-dihydro-5H-1,6-naphthyridin-6-yl)-4-methyl-3-pyridyl]-5-ethyl-oxazole-4-carboxamide]: in data set [1], the EC50 came out at 20 nM and the Emax worked out at 89%.

For the molecule `Cc1cc(N2CCc3ncccc3C2)nc(N2CCC(F)(F)CC2)c1NC(=O)c1nccn1C` [Compound 1.8, N-[2-(4,4-difluoro-1-piperidyl)-6-(7,8-dihydro-5H-1,6-naphthyridin-6-yl)-4-methyl-3-pyridyl]-1-methyl-imidazole-2-carboxamide], in data set [1], the EC50 was found to be 1300 nM and the Emax came out at 114%.

Consider `Cc1nc(C(=O)Nc2c(C)cc(N3CCc4ncccc4C3)nc2N2CCC(F)(F)CC2)c(C)o1` [Compound 1.16, N-[2-(4,4-difluoro-1-piperidyl)-6-(7,8-dihydro-5H-1,6-naphthyridin-6-yl)-4-methyl-3-pyridyl]-2,5-dimethyl-oxazole-4-carboxamide], for which, in data set [1], the EC50 was found to be 5400 nM and the Emax came out at 116%.

For the molecule `Cc1cc(N2CCc3ncccc3C2)nc(N2CCC(F)(F)CC2)c1NC(=O)c1ocnc1C` [Compound 1.12, N-[2-(4,4-difluoro-1-piperidyl)-6-(7,8-dihydro-5H-1,6-naphthyridin-6-yl)-4-methyl-3-pyridyl]-4-methyl-oxazole-5-carboxamide], in data set [1], the midpoint of the response, the EC50, lay at 65 nM and the Emax turned out to be 100%.

The molecule `Cc1cc(N2CCc3ncccc3C2)nc(N2CCCC2)c1NC(=O)Cc1cc(F)cc(F)c1` [Compound 1.1, 2-(3,5-Difluoro-phenyl)-N-[6-(7,8-dihydro-5H-[1,6]naphthyridin-6-yl)-4-methyl-2-pyrrolidin-1-yl-pyridin-3-yl]-acetamide] registered a melting point of 203 to 206 °C. Besides, in data set [1], it took 67 nM to reach a half-maximal effect (EC50) and the Emax was found to be 96%.

Turning to `Cc1cc(N2CCc3ncccc3C2)nc(N2CCC(F)(F)CC2)c1NC(=O)c1ncoc1-c1ccccc1` [Compound 1.17, N-[2-(4,4-difluoro-1-piperidyl)-6-(7,8-dihydro-5H-1,6-naphthyridin-6-yl)-4-methyl-3-pyridyl]-5-phenyl-oxazole-4-carboxamide], in data set [1], the EC50 is 4600 nM and the Emax was found to be 90%.

For the molecule `Cc1cc(N2CCc3ncccc3C2)nc(N2CCCC2)c1NC(=O)c1cccc(F)c1` [Compound 1.3, N-[6-(7,8-Dihydro-5H-[1,6]naphthyridin-6-yl)-4-methyl-2-pyrrolidin-1-yl-pyridin-3-yl]-3-fluoro-benzamide], in data set [1], the response was half-maximal at 5000 nM (EC50) and the Emax was determined as 24%.

For the molecule `Cc1cc(N2CCc3ncccc3C2)nc(N2CCCC2)c1NC(=O)CC(C)(C)C` [Compound 1.2, N-[6-(7,8-Dihydro-5H-[1,6]naphthyridin-6-yl)-4-methyl-2-pyrrolidin-1-yl-pyridin-3-yl]-3,3-dimethyl-butyramide], in data set [1], the EC50 is 1200 nM and the Emax amounted to 121%.

Consider `Cc1cc(N2CCc3ncccc3C2)nc(N2CCC(F)(F)CC2)c1NC(=O)c1ncoc1C1CC1` [Compound 1.18, 5-cyclopropyl-N-[2-(4,4-difluoro-1-piperidyl)-6-(7,8-dihydro-5H-1,6-naphthyridin-6-yl)-4-methyl-3-pyridyl]oxazole-4-carboxamide], for which, in data set [1], the EC50 was 73 nM and the Emax was found to be 34%.

As for `Cc1cccnc1C(=O)Nc1c(C)cc(N2CCc3ncccc3C2)nc1N1CCC(F)(F)CC1` [Compound 1.15, N-[2-(4,4-difluoro-1-piperidyl)-6-(7,8-dihydro-5H-1,6-naphthyridin-6-yl)-4-methyl-3-pyridyl]-3-methyl-pyridine-2-carboxamide], in data set [1], it took 2900 nM to reach a half-maximal effect (EC50) and the Emax worked out at 28%.

Take `Cc1ccoc1C(=O)Nc1c(C)cc(N2CCc3ncccc3C2)nc1N1CC[C@@H](F)C1` [Compound 1.4, N-[6-(7,8-dihydro-5H-1,6-naphthyridin-6-yl)-2-[(3R)-3-fluoropyrrolidin-1-yl]-4-methyl-3-pyridyl]-3-methyl-furan-2-carboxamide]: in data set [1], the EC50 was found to be 85 nM and the Emax worked out at 101%.

Take `Cc1ccoc1C(=O)Nc1c(C)cc(N2CCc3ncccc3C2)nc1N1CCC(F)(F)CC1` [Compound 1.6, N-[2-(4,4-difluoro-1-piperidyl)-6-(7,8-dihydro-5H-1,6-naphthyridin-6-yl)-4-methyl-3-pyridyl]-3-methyl-furan-2-carboxamide]: in data set [1], a half-maximal effect (EC50) was put at 19 nM and the Emax was determined as 81%.

Consider `Cc1cc(N2CCc3ncccc3C2)nc(N2CCC(F)(F)CC2)c1NC(=O)Cc1cc(F)cc(F)c1` [Compound 1.7, 2-(3,5-difluorophenyl)-N-[2-(4,4-difluoro-1-piperidyl)-6-(7,8-dihydro-5H-1,6-naphthyridin-6-yl)-4-methyl-3-pyridyl]-acetamide], for which, in data set [1], it took 220 nM to reach a half-maximal effect (EC50) and the Emax turned out to be 104%.

As for `Cc1cc(N2CCc3ncccc3C2)nc(N2CCC(F)(F)CC2)c1NC(=O)c1cnsc1C` [Compound 1.19, N-[2-(4,4-difluoro-1-piperidyl)-6-(7,8-dihydro-5H-1,6-naphthyridin-6-yl)-4-methyl-3-pyridyl]-5-methyl-isothiazole-4-carboxamide], in data set [1], a half-maximal response (EC50) required 5200 nM and the Emax came to 71%.

In the case of `Cc1cc(N2CCc3ncccc3C2)nc(N2CCC(F)(F)CC2)c1NC(=O)CC1CC1` [Compound 1.13, 2-cyclopropyl-N-[2-(4,4-difluoro-1-piperidyl)-6-(7,8-dihydro-5H-1,6-naphthyridin-6-yl)-4-methyl-3-pyridyl]-acetamide], in data set [1], the EC50 came out at 1100 nM and the Emax was determined as 109%.

A word on the EC50: it is the concentration giving half of the maximal effect. Read a high EC50 as weaker potency. In general, melting point refers to the temperature of the solid-liquid transition.
